Calls of active or inactive are those of the source. How the calls were made is not given here.
System: rodent carcinogenicity bioassays, tumor incidence
Assay: CCRIS carcinogenicity studies
How it was run: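 NCI-built, expert-reviewed records of carcinogenicity and related test outcomes (mutagenicity, tumor promotion/inhibition) compiled from published and report sources, historical span 1985-2011, not updated.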

## CCBr
Species: MOUSE, Strain/Sex: B6C3F1/FEMALE, Route: INHALATION, Dose: 0, 100, 200, 400 PPM 6 HR/D 5 D/WK FOR 103 WK (STUDY DURATION: 105 WK), Dose: 0, 100, 200, 400 PPM 6 HR/D 5 D/WK FOR 103 WK (STUDY DURATION: 105 WK), Tumor Site: Type of Lesion: UTERUS: ADENOMA, ADENOCARCINOMA, ADENOMA OR ADENOCARCINOMA, ADENOCARCINOMA OR SQUAMOUS CELL CARCINOMA
  carcinogen call: active; positive
Species: MOUSE, Strain/Sex: B6C3F1/MALE, Route: INHALATION, Dose: 0, 100, 200, 400 PPM 6 HR/D 5 D/WK FOR 104 WK (STUDY DURATION: 106 WK), Dose: 0, 100, 200, 400 PPM 6 HR/D 5 D/WK FOR 104 WK (STUDY DURATION: 106 WK), Tumor Site: Type of Lesion: LUNG: ALVEOLAR/BRONCHIOLAR ADENOMA OR CARCINOMA
  carcinogen call: equivocal
Species: RAT, Strain/Sex: F344/FEMALE, Route: INHALATION, Dose: 0, 100, 200, 400 PPM 6 HR/D 5 D/WK FOR 104 WK (STUDY DURATION: 106 WK), Dose: 0, 100, 200, 400 PPM 6 HR/D 5 D/WK FOR 104 WK (STUDY DURATION: 106 WK), Tumor Site: Type of Lesion: BRAIN: GLIOMA, LUNG: ALVEOLAR/BRONCHIOLAR ADENOMA
  carcinogen call: equivocal
Species: RAT, Strain/Sex: F344/MALE, Route: INHALATION, Dose: 0, 100, 200, 400 PPM 6 HR/D 5 D/WK FOR 104 WK (STUDY DURATION: 106 WK), Dose: 0, 100, 200, 400 PPM 6 HR/D 5 D/WK FOR 104 WK (STUDY DURATION: 106 WK), Tumor Site: Type of Lesion: ADRENAL MEDULLA: PHEOCHROMOCYTOMA, PHEOCHROMOCYTOMA OR MALIGNANT PHEOCHROMOCYTOMA
  carcinogen call: active; positive

## ClC(Cl)=C(c1ccc(Cl)cc1)c1ccc(Cl)cc1
Species: MOUSE, Strain/Sex: B6C3F1/FEMALE, Route: ORAL, Dose: 0, 148, 261 PPM IN DIET, TWA, Dose: 0, 148, 261 PPM IN DIET, TWA, Tumor Site: Type of Lesion: LIVER: HEPATOCELLULAR CARCINOMA
  carcinogen call: active; positive
Species: MOUSE, Strain/Sex: B6C3F1/MALE, Route: ORAL, Dose: 0, 148, 261 PPM IN DIET, TWA, Dose: 0, 148, 261 PPM IN DIET, TWA, Tumor Site: Type of Lesion: LIVER: HEPATOCELLULAR CARCINOMA
  carcinogen call: active; positive
Species: MOUSE, Strain/Sex: CF-1/MALE,FEMALE, Route: ORAL, Dose: 250 PPM IN DIET, Tumor Site: Type of Lesion: LIVER: HEPATOMA
  carcinogen call: active; positive
Species: RAT, Strain/Sex: OSBORNE-MENDEL/FEMALE, Route: ORAL, Dose: 0, 242, 462 PPM IN DIET, TWA, Dose: 0, 242, 462 PPM IN DIET, TWA
  carcinogen call: inactive; negative
Species: RAT, Strain/Sex: OSBORNE-MENDEL/MALE, Route: ORAL, Dose: 0, 437, 839 PPM IN DIET, TWA, Dose: 0, 437, 839 PPM IN DIET, TWA
  carcinogen call: inactive; negative

## CNCCC(Oc1ccc(C(F)(F)F)cc1)c1ccccc1 (stereo not given)
Species: MOUSE, Strain/Sex: B6C3F1/FEMALE, Route: ORAL, Dose: 0, 0.001, 0.004, 0.01% IN DIET FOR 24 MO (STUDY DURATION: 24 MO), Dose: 0, 0.001, 0.004, 0.01% IN DIET FOR 24 MO (STUDY DURATION: 24 MO)
  carcinogen call: inactive; negative
Species: MOUSE, Strain/Sex: B6C3F1/MALE, Route: ORAL, Dose: 0, 0.001, 0.004, 0.01% IN DIET FOR 24 MO (STUDY DURATION: 24 MO), Dose: 0, 0.001, 0.004, 0.01% IN DIET FOR 24 MO (STUDY DURATION: 24 MO)
  carcinogen call: inactive; negative
Species: RAT, Strain/Sex: F344/FEMALE, Route: ORAL, Dose: 0, 0.001, 0.0045, 0.02% IN DIET FOR 24 MO (STUDY DURATION: 24 MO), Dose: 0, 0.001, 0.0045, 0.02% IN DIET FOR 24 MO (STUDY DURATION: 24 MO)
  carcinogen call: inactive; negative
Species: RAT, Strain/Sex: F344/MALE, Route: ORAL, Dose: 0, 0.001, 0.0045, 0.02% IN DIET FOR 24 MO (STUDY DURATION: 24 MO), Dose: 0, 0.001, 0.0045, 0.02% IN DIET FOR 24 MO (STUDY DURATION: 24 MO)
  carcinogen call: inactive; negative

## O=S(=O)(O)OCc1c2ccccc2c2ccc3cccc4ccc1c2c43
Species: MOUSE, Strain/Sex: B6C3F1/MALE, Route: INTRAPERITONEAL, Dose: 0, 0.0025 UMOL/G ONCE AT 12 DAYS OF AGE (STUDY DURATION: 10 MO), Tumor Site: Type of Lesion: LIVER: HEPATOMA
  carcinogen call: active; positive
Species: RAT, Strain/Sex: SPRAGUE-DAWLEY/FEMALE, Route: SUBCUTANEOUS, Dose: 0, 0.2 UMOL 3/WK FOR 20 DOSES (STUDY DURATION: 52 WK), Tumor Site: Type of Lesion: INJECTION SITE: SARCOMA
  carcinogen call: active; positive

Source: PubChem BioAssay AID1259411 (Chemical Carcinogenesis Research Information System (CCRIS), 2018)
